Results as given in patent publication US10076535B2, “Use of CPG oligonucleotides co-formulated with an antibiotic to accelerate wound healing” (THE UNITED STATES OF AMERICA, as represented by the …, priority 2012, dated 2018).
“Also recorded” adds a separate entry of the source.

What was measured:
[1] = system: BALB/c mice; experiment: Murine in vivo wound repair model (6 mm full-thickness excisional punch biopsy); settings: for effect on delay in wound healing caused by antibiotic: TLR ligand incorporated into / co-administered with antibiotic ointment; for effect on wound healing: simply applied over a pre-existing layer of antibiotic ointment or petrolatum
Method: The wound repair model of Devalaraja et al (J Invest Dermatol 2000; 115: 234-44) was used. Skin on the back was shaved and treated antibiotic ointment or petrolatum. In some studies, mice were injected s.c. at the base of the tail with 50 ug/g of vancomycin and imipenrm/cilastatin (Fernandez et al., Antimicrob Agents Chemother 2010; 54: 116-25, 2010). Fourteen days later, the mice were anesthetized by intraperitoneal injection of ketamine (80 μg/g) plus xylazine (10 ug/g). The skin on the back was gently cleaned with PBS. A 6 mm full-thickness excisional punch biopsy (including the Pannilulus carnosus) was taken using an ACU-PUNCH® (Fort Lauderdale, Fla.) from the right and left upper paravertebral region of each animal. Individual biopsy sites were coated with 100 μl of antibiotic ointment±50 μg CpG ODN and/or 5 μg IMQ, and then covered with nonadhesive sterile gauze (Sato et al., Wound Repair Regen 2010; 18: 586-93). Mice were wrapped with a form-fitting bandage to further protect the biopsy sites. Wound contraction was recorded every other day by digital photography and changes calculated using NIH Image J software (available on the internet, version 1.37). Each treatment was tested and results averaged in a minimum of five independent animals/group.
A well-established murine model of wound healing was used to evaluate the effect of antibiotic treatment on the rate of wound repair (Devalaraja et al., J Invest Dermatol 2000; 115: 234-44). Identical full-thickness excisional biopsies were taken from skin sites treated with either antibiotic ointment or petrolatum (different treatments were administered to contralateral sides of each animal). Sequential photographs provided a permanent record of the speed of wound closure. Untreated biopsy sites and sites treated with petrolatum (ointment control), healed at nearly identical rates.

[2] = system: CCL2 mRNA; experiment: Quantitative RT-PCR of mRNA at the wound site; format: in vivo, mice; settings: added to antibiotic ointment; day 3; p<0.05
Method: (§1) Tissue from the biopsy site was excised, homogenized in Trizol, and extracted with chloroform. […] 1 μg of total RNA was reverse-transcribed using the QUANTITECT™ Reverse Transcription. Kit (QIAGEN®). Purified cDNA was used as the template for quantitative RT-PCR conducted using pre-designed primer/probe sets for interleucin (IL)-1β, CCL2, IFNa, IFNβ, basic fibroblast growth factor (FGF), transforming growth factor (TGF)β, and glyceraldehyde 3-phosphate dehydrogenase (GAPDH) (Applied Biosystems, Foster City, Calif.). Gene expression levels were analyzed using the STEPONEPLUS™ RT-PCR system (APPLIED BIOSYSTEMS®). All reagents and probes used in this system were purchased from APPLIED BIOSYSTEMS®.

[3] = system: IFNβ; experiment: Quantitative RT-PCR of mRNA at the wound site; format: in vivo, mice; settings: day 3 after biopsy
Method: as §1

[4] = system: IFNa; experiment: Quantitative RT-PCR of mRNA at the wound site; format: in vivo, mice; settings: day 3 after biopsy
Method: as §1

[5] = system: IL-1β mRNA; experiment: Quantitative RT-PCR of mRNA at the wound site; format: in vivo, mice; settings: added to antibiotic ointment; day 3; p<0.05
Method: as §1

[6] = system: macaques; settings: topical administration; cited from earlier work
[7] = system: mice; settings: topical administration; cited from earlier work
[8] = system: TGFβ; experiment: Quantitative RT-PCR of mRNA at the wound site; format: in vivo, mice; settings: Bx sites on day 3
Method: (§2) FIG. 6 is a bar graph of the effect of antibiotic ointment on the levels of b-FGF and TGFβ mRNA. Mice were treated as described in FIG. 3. Total RNA was extracted from the Bx sites on day 3. Quantitative RT-PCR was performed to detect b-FGF and TGFβ. Results represent the mean±SE of at least 4 independent samples/treatment group. *p<0.05 vs untreated group.
as §1

[9] = system: b-FGF; experiment: Quantitative RT-PCR of mRNA at the wound site; format: in vivo, mice; settings: Bx sites on day 3
Method: as §2, §1

Compound	effect on delay in wound healing caused by antibiotic [1]	effect on wound healing [1]	effect on antibiotic-reduced CCL2 mRNA level [2]	expression of IFNβ at the biopsy site [3]	expression of IFNa at the biopsy site [4]	effect on antibiotic-reduced IL-1β mRNA level [5]	wound closure [6]	wound closure [7]	expression of mRNA encoding TGFβ [8]	expression of b-FGF at the wound site [9]
CpG ODN: Phosphorothioate K-type CpG ODN 1555, sequence GCTAGACGTTAGCGT, SEQ ID NO: 30 (DNA, all phosphorothioate, methylation of C not given here)	completely corrected the delay in wound healing; also recorded: reversed	no effect on wound healing	corrected these defects	reversed	reversed	corrected these defects	significantly accelerated wound closure	significantly accelerated wound closure	up-regulated	increased
CC(C)Cn1cnc2c(N)nc3ccccc3c21 [IMQ, 1-isobutyl-1H-imidazo[4,5-c]quinolin-4-amine, reference compound]	completely corrected the delay in wound healing; also recorded: reversed	no effect on wound healing	to a lesser extent IMQ corrected these defects	reversed	reversed	–	–	–	up-regulated	increased
